Measured values taken from ChEMBL document CHEMBL1134727, “Synthesis and structure-activity relationship of diarylamide derivatives as selective inhibitors of the proliferation of human coronary artery smooth muscle cells” (Bioorg Med Chem Lett, 2001).

Experiments:
[1] = Inhibition of human coronary artery smooth muscle cells (SMC's) proliferation, induced by platelet-derived growth factor (PDGF-BB) 20 ng mL.; type: functional
[2] = Evaluated for inhibition of proliferation of human coronary artery endothelial cells (ECs), induced by 5 % FBS.; type: functional, cell-based; conditions: Endothelial cell
[3] = Ratio of inhibitory activity on proliferation of human coronary artery smooth muscle cells to that of human coronary artery endothelial cells; type: functional, Endothelial cell

Compound | IC50 [1] [nM] | IC50 [2] [nM] | Ratio [3]
CCOC(=O)c1ccccc1NC(=O)/C=C/c1ccc(OC)c(OC)c1 | > 50000 | 9500 | 
COc1ccc(C(=O)Nc2cc(OC)c(OC)cc2C(N)=O)cc1OC | 720 | > 10000 | >14
COc1cc(C(=O)Nc2ccccc2C(N)=O)cc(OC)c1OC | > 2000 |  | 
COc1ccc(C(=O)Nc2cc(OC)c(OC)cc2C(=O)O)cc1OC | > 2000 |  | 
CCOC(=O)c1cc(OC)c(OC)cc1NC(=O)c1ccc(O)c([N+](=O)[O-])c1 | 1800 | 7200 | 4
CCOC(=O)c1cc(OC)c(OC)cc1NC(=O)c1ccc(O)c(N)c1 | > 2000 |  | 
COc1ccc(C(=O)Nc2cc(OC)c(OC)cc2C(=O)N(C)C)cc1OC | > 2000 |  | 
COc1cc(C(=O)Nc2cc(F)c(F)cc2C(N)=O)cc(OC)c1OC | 2000 | > 10000 | >5
COc1ccc(C(=O)Nc2cc(OC)c(OC)cc2C#N)cc1OC | > 2000 |  | 
CCOC(=O)c1cc(OC)c(OC)cc1NC(=O)c1cc(OC)c(OC(C)=O)c(OC)c1 | 3100 |  | 
CCOC(=O)c1cc(OC)c(OC)cc1NC(=O)c1ccc(OC(C)=O)cc1 | 1300 | 5200 | 4
CCOC(=O)c1cc(OC)c(OC)cc1NC(=O)/C=C\c1ccc(OC)c(OC)c1 | 1200 | 4100 | 4
CCOC(=O)c1cc(OC)c(OC)cc1NC(=O)c1cc(OC)c(OC)c(OC)c1 | 310 | 4600 | 15
COc1cc(C(=O)Nc2cc([N+](=O)[O-])ccc2C(N)=O)cc(OC)c1OC | 1600 | < 2000 | 
CCOC(=O)c1cc(OC)c(OC)cc1NC(=O)c1ccc(OC)c(OC)c1 | 850 | 6000 | 7
COc1cc(C(=O)Nc2cc(N)ccc2C(N)=O)cc(OC)c1OC | > 2000 |  | 
CCOC(=O)c1cc(OC)c(OC)cc1NC(=O)c1cccc(OC)c1 | 1600 | 6100 | 4
COc1ccc(/C=C/C(=O)Nc2ccccc2C(=O)O)cc1OC [TRANILAST] | 24500 | 19100 | 0.8
COc1cc(C(=O)Nc2cc(C)ccc2C(N)=O)cc(OC)c1OC | > 2000 |  | 
CCOC(=O)c1cc(OC)c(OC)cc1NC(=O)c1ccc(OC(C)=O)c(OC)c1 | 2800 |  | 
CCOC(=O)c1cc(OC)c(OC)cc1NC(=O)c1ccc(OC)c(OC)c1OC | 410 | 2900 | 7
CCOC(=O)c1cc(OC)c(OC)cc1NC(=O)c1ccc(OC)cc1 | 610 | < 2000 | 
CCOC(=O)c1cc(OC)c(OC)cc1NC(=O)Cc1ccc(OC)c(OC)c1 | 800 | 4700 | 6
CCOC(=O)c1cc(OC)c(OC)cc1NC(=O)c1cc(OC(C)=O)c(OC(C)=O)c(OC(C)=O)c1 | > 2000 |  | 
COc1cc(C(=O)Nc2ccc(Cl)cc2C(N)=O)cc(OC)c1OC | > 2000 |  | 
COc1ccc(NC(=O)c2ccc(OC)c(OC)c2)cc1OC | > 2000 |  | 
COc1ccc(/C=C/C(=O)Nc2ccccc2C(N)=O)cc1OC | 16700 | 34500 | 2
CNC(=O)c1cc(OC)c(OC)cc1NC(=O)c1ccc(OC)c(OC)c1 | > 2000 |  | 
CCOC(=O)c1cc(OC)c(OC)cc1NC(=O)c1ccc(OC(C)=O)c(OC(C)=O)c1 | 2200 |  | 
CCOC(=O)c1cc(OC)c(OC)cc1NC(=O)c1ccccc1OC | 800 | 3800 | 5
